pIC50: −log10 of the molar value. The source made the active and inactive calls. The rule behind the calls is not given here. Positions of bridges follow the written chain, without caps; N, C: chain ends. Non-standard residues stand in square brackets, D forms with d. Residues, ends and D or L forms follow the SMILES beside them. S5 = C=CCCC[C@](C)(N)C(=O)O
What was measured:
B16-F10 [1] = assay: Antiproliferative activity against mouse B16-F10 cells assessed as inhibition of cell growth measured after 24 hrs by Cell Counting Kit-8 assay; type: functional, cell-based; settings: B16-F10, 24 h
4T1 [2] = assay: Antiproliferative activity against triple-negative mouse 4T1 cells assessed as inhibition of cell growth measured after 24 hrs by Cell Counting Kit-8 assay; type: functional, cell-based; settings: 4T1, 24 h
4T1 [3] = assay: Antitumor immunity against mouse 4T1 cells implanted in […] mouse assessed as release of HMGB-1 at IC75 measured after 6 hrs by Hoechst 33342 staining based confocal microscopic analysis; type: functional, cell-based
[4] = Toxicity in B16-F10 tumor bearing C57 mouse assessed as change in body weight at 1 mg, IT administered once daily for 3 consecutive days starting from day 5 post inoculation; settings: in vivo, other, 72 h, time 3 day
4T1 [5] = assay: Antitumor immunity against mouse 4T1 cells implanted in […] mouse assessed as surface translocation of calreticulin at IC75 measured after 6 hrs by DiR/Hoechst 33342 staining based confocal microscopic analysis; type: functional, cell-based
B16-F10 [6] = assay: Antitumor activity against mouse B16-F10 cells implanted in C57 mouse assessed as reduction in tumor growth at 1 mg, IT administered once daily for 3 consecutive days starting from day 5 post inoculation; type: functional, cell-based; settings: time 3.0 day
[7] = Stability of the compound assessed as alpha chymotrypsin (unknown origin)-mediated proteolysis by measuring degradation half life at 1 mM measured up to 12 hrs by HPLC analysis; type: ADME; settings: human, 12 h, 1000 µM
[8] = Toxicity in 4T1 tumor bearing BALB/c mouse assessed as increase in body weight at 1 mg, IT administered once daily for 3 consecutive days starting from day 2 post inoculation; settings: in vivo, other, 72 h, time 3 day
4T1 [9] = assay: Antitumor activity against mouse 4T1 cells implanted in BALB/c mouse assessed as necrosis at 1 mg, IT administered once daily for 3 consecutive days starting from day 2 post inoculation and measured on day 7 by hematoxylin-eosin staining based assay; type: functional, cell-based; settings: time 7.0 day
4T1 [10] = assay: Antitumor activity against mouse 4T1 cells implanted in BALB/c mouse assessed as inhibition of tumor progression at 1 mg, IT administered once daily for 3 consecutive days starting from day 2 post inoculation; type: functional, cell-based; settings: time 3.0 day
B16-F10 [11] = assay: (§1) Antitumor activity against mouse B16-F10 cells implanted in C57 mouse assessed as increase in infiltration of CD4 positive T cells into tumors at 1 mg, IT administered once daily for 3 consecutive days starting from day 5 post inoculation and measured after 10 days by histochemical staining based analysis; type: functional, cell-based; settings: time 10.0 day
4T1 [12] = assay: as §1, with “mouse 4T1” for “mouse B16-F10”, “of CD8” for “of CD4”, “T lymphocytes in” for “T cells into”, “day 2” for “day 5”, “after 7” for “after 10”; type: functional, cell-based; settings: time 7.0 day
4T1 [13] = assay: Induction of morphological changes in mouse 4T1 cells assessed as appearance of broken cell particles measured after 5 mins by bright field 3D live-cell imaging analysis; type: functional, cell-based
[14] = Stability of the compound assessed as alpha chymotrypsin (unknown origin)-mediated proteolysis by measuring parent compound remaining at 1 mM measured up to 12 hrs by HPLC analysis; type: ADME; settings: human, read-out: Stability
B16-F10 [15] = assay: Antitumor immunity against mouse B16-F10 cells implanted in C57 mouse assessed as release of HMGB-1 at IC75 measured after 6 hrs by Hoechst 33342 staining based confocal microscopic analysis; type: functional, cell-based
B16-F10 [16] = assay: as §1, with “CD8” for “CD4”; type: functional, cell-based; settings: time 10.0 day
[17] = Hemolytic activity in mouse RBC assessed as hemoglobin release at 20 to 80 uM incubated for 1 hr by absorbance based method; type: tissue-based; settings: erythrocyte, dose 20-80 µM
4T1 [18] = assay: as §1, with “mouse 4T1” for “mouse B16-F10”, “T lymphocytes in” for “T cells into”, “day 2” for “day 5”, “after 7” for “after 10”; type: functional, cell-based; settings: time 7.0 day
B16-F10 [19] = assay: Antitumor activity against mouse B16-F10 cells implanted in C57 mouse assessed as induction of cell necrosis by measuring reduction in live cells at 1 mg, IT administered once daily for 3 consecutive days starting from day 5 post inoculation and measured after 10 to 14 days by hematoxylin-eosin staining based assay; type: functional; settings: time 10-14 day
4T1 [20] = assay: Cytotoxicity against mouse 4T1 cells assessed as increase in extracellular ATP level at 50 uM measured up to 60 mins by luminometric method; type: functional, cell-based; settings: time min <=60
4T1 [21] = assay: Cytotoxicity against mouse 4T1 cells assessed as disruption of cells by measuring increase in red fluorescence at 10 uM measured up to 3 hrs by calcein-AM and PI dual staining based live/dead cell viability assay; type: functional; settings: time hrs <=3
4T1 [22] = assay: Antitumor activity against mouse 4T1 cells implanted in BALB/c mouse assessed as necrosis at 1 mg, IT administered once daily for 3 consecutive days starting from day 2 post inoculation and measured on day 18 by hematoxylin-eosin staining based assay; type: functional, cell-based; settings: time 18.0 day
B16-F10 [23] = assay: Antitumor immunity against mouse B16-F10 cells implanted in C57 mouse assessed as surface translocation of calreticulin at IC75 measured after 6 hrs by DiR/Hoechst 33342 staining based confocal microscopic analysis; type: functional, cell-based
4T1 [24] = assay: Induction of morphological changes in mouse 4T1 cells assessed as change in adhesion measured up to 10 mins by bright field 3D live-cell imaging analysis; type: functional, cell-based; settings: time min <=10
4T1 [25] = assay: Cytotoxicity against mouse 4T1 cells assessed as loss of membrane integrity by measuring increase in LDH release incubated for 24 hrs by LDH release assay; type: functional, cell-based

In the case of `CC(C)C[C@H](NC(=O)CN)C(=O)N[C@@H](CC(C)C)C(=O)N[C@@H](CCCCN)C(=O)N[C@@H](CCCNC(=N)N)C(=O)N[C@@]1(C)CCC/C=C\CCC[C@@](C)(C(N)=O)NC(=O)[C@H](CC(C)C)NC(=O)[C@H]([C@@H](C)O)NC(=O)[C@H](CCCCN)NC1=O` (H-GLLKR[S5]KTL[S5]-NH2; staple (Z) 6-10), the pIC50 (B16-F10 [1]) was 4.18 and the pIC50 (4T1 [2]) was 4.51.
For `CC[C@H](C)[C@@H]1NC(=O)[C@@](C)(NC(=O)[C@H](CCCCN)NC(=O)[C@H](CC(C)C)NC(=O)[C@H](CC(C)C)NC(=O)CN)CCC/C=C\CCC[C@@](C)(C(=O)N[C@@H](CC(C)C)C(N)=O)NC(=O)[C@H]([C@@H](C)O)NC(=O)[C@H](CCCCN)NC1=O` (H-GLLK[S5]IKT[S5]L-NH2; staple (Z) 5-9), the pIC50 (B16-F10 [1]) was 4.80 and the pIC50 (4T1 [2]) was 5.29.
Work on `CC[C@H](C)[C@@H]1NC(=O)[C@H](CCCNC(=N)N)NC(=O)[C@@](C)(NC(=O)[C@H](CC(C)C)NC(=O)[C@H](CC(C)C)NC(=O)CN)CCC/C=C\CCC[C@@](C)(C(=O)N[C@@H](CC(C)C)C(=O)N[C@@H](CC(C)C)C(N)=O)NC(=O)[C@H](CCCCN)NC1=O` (H-GLL[S5]RIK[S5]LL-NH2; staple (Z) 4-8) yielded a pIC50 (B16-F10 [1]) of 4.22 and a pIC50 (4T1 [2]) of 4.47.
In the case of `CC[C@H](C)[C@@H]1NC(=O)[C@H](CCCNC(=N)N)NC(=O)[C@H](CCCCN)NC(=O)[C@@](C)(NC(=O)[C@H](CC(C)C)NC(=O)CN)CCC/C=C\CCC[C@@](C)(C(=O)N[C@H](C(=O)N[C@@H](CC(C)C)C(=O)N[C@@H](CC(C)C)C(N)=O)[C@@H](C)O)NC1=O` (H-GL[S5]KRI[S5]TLL-NH2; staple (Z) 3-7), the Activity (4T1 [3]) was “Active”, the Activity [4] was “Non-Toxic” and the Activity (4T1 [5]) was “Active”. The Activity (B16-F10 [6]) was “Active”, the Stability [7] was “Stable” and the Activity [8] was “Non-Toxic”. The Activity (4T1 [9]) was “Active”, the Activity (4T1 [10]) was “inactive” and the Activity (B16-F10 [11]) was “Active”. The Activity (4T1 [12]) was “inactive”, the Activity (4T1 [13]) was “Active” and the remaining at 12 h, 1000 µM [14] was > 60%. The pIC50 (B16-F10 [1]) was 4.79, the Activity (B16-F10 [15]) was “Active” and the Activity (B16-F10 [16]) was “Active”. For the same molecule, the Activity [17] was “Toxic”, the Activity (4T1 [18]) was “inactive” and the Activity (B16-F10 [19]) was “Active”. For the same molecule, the pIC50 (4T1 [2]) was 5.40, the Activity (4T1 [20]) was “Active” and the Activity (4T1 [21]) was “Active”. The Activity (4T1 [22]) was “inactive”, the Activity (B16-F10 [23]) was “Active” and the Activity (4T1 [24]) was “Active”. The Activity (4T1 [25]) was “Dose-Dependent Effect”.

From ChEMBL document CHEMBL5029142, “Stapled Wasp Venom-Derived Oncolytic Peptides with Side Chains Induce Rapid Membrane Lysis and Prolonged Immune Responses in Melanoma” (J Med Chem, 2021)
